The values below come from ChEMBL document CHEMBL6134792, “Discovery of selective LATS inhibitors via scaffold hopping: enhancing drug-likeness and kinase selectivity for potential applications in regenerative medicine” (RSC Med Chem, 2024).

This data set can be described thus: Clearance in male mouse at 20 mg/kg, po or 5 mg/kg, iv by LC-MS/MS analysis. It is filed as ADME, organism-based. Particulars: in vivo.

Take `O=C(/N=c1\sccn1Cc1ccccc1)c1n[nH]c2ncccc12`: the CL was found to be 28.3 mL/min/kg.
